# Measurements published in US20240325389A1, “NEW THERAPEUTIC TARGETS WITH AN ANTI-INFLAMMATORY AND ANTI-INTERFERON EFFECT” (priority 2020, published 2024).
# Where two headings read alike, the source gives them in different places.
# What was measured:
# [1] = test system: monocytes of healthy donors; assay: Intracellular TNFα production in monocytes after TLR4 (LPS) stimulation, flow cytometry; format: cell-based, human; conditions: for production of inflammatory cytokines: PBMCs and purified monocytes of healthy donors, Toll-like receptors 2/4 (lipoteichoic acid/LPS)
# [2] = test system: neurones infected by the prions; format: cell-based
# [3] = test system: monocytes of healthy donors; assay: Intracellular TNFα production in monocytes after TLR7/8 (R848) stimulation, flow cytometry; format: cell-based, human; conditions: for production of inflammatory cytokines: PBMCs and purified monocytes of healthy donors, Toll-like receptor 7/8 (R848); for intracellular production of inflammatory cytokines (TNFα): monocytes, inhibitor 1 h before R848 5 μg/ml (TLR7/8), 16 h
# [4] = test system: monocytes of healthy donors; assay: Intracellular IL-1β and TNFα in monocytes after inflammasome activation by uric acid crystals (MSU, gout model), flow cytometry; format: cell-based, human; conditions: for production of inflammatory cytokines: monocytes of healthy donors, activation of the inflammasome by uric acid crystals
# [5] = test system: peripheral blood mononuclear cells (PBMCs) of healthy donors; assay: Cytokine and interferon secretion by PBMCs after TLR7/8 (R848) stimulation, LegendPlex; format: cell-based, human; conditions: for production and secretion of pro-inflammatory cytokines, such as IL-6, IL-1p and the interferons induced by the TLR7/8 stimulation / production of TNFα induced by the TLR7/8 stimulation: human PBMCs incubated with inhibitor before R848
# [6] = test system: peripheral blood mononuclear cells (PBMCs) of healthy donors; assay: Cytokine and interferon secretion by PBMCs in response to HIV, LegendPlex; format: cell-based, human; conditions: inhibitor 1 h before AT-2-inactivated HIV-1MN, 24 h
# HEK293 = assay: Interferon production by cGAMP-stimulated HEK293 non-immune cells (STING-37), luciferase; conditions: inhibitor at 1 μM, cGAMP 3 μg/ml, 24 h
# THP1-Dual [7] = assay: mRNA encoding TNFα, IL6 and MCP1 in LPS-activated THP1-Dual monocytes, RT-qPCR; format: cell-based, human; conditions: inhibitor 1 h before LPS 100 ng/ml
# [8] = test system: monocytes of healthy donors; assay: Intracellular TNFα production in monocytes after TLR2 (LTA) stimulation, flow cytometry; format: cell-based, human; conditions: inhibitor 1 h before LTA 1 μg/ml (TLR2), 16 h
# [9] = test system: peripheral blood mononuclear cells (PBMCs); assay: Interferon production by cGAMP-stimulated PBMCs, STING-37 reporter
# DBA/1J mice = conditions: for total average arthritis scores (histopathology): with respect to the control vehicle
# [10] = test system: peripheral blood mononuclear cells (PBMCs) of healthy donors; assay: Cytokine and interferon secretion by PBMCs after TLR4 (LPS) stimulation, LegendPlex; format: cell-based, human; conditions: inhibitor 1 h before LPS 100 ng/ml (TLR4), 24 h
# [11] = test system: peripheral blood mononuclear cells (PBMCs) of healthy donors; assay: Interferons secreted by R848-stimulated PBMCs, STING-37 reporter cell line; format: cell-based, human
# [12] = test system: 1C11^5-HT serotonergic neurons; assay: mRNA encoding TNFα, IL6 and MCP1 in LPS-activated 1C11^5-HT neurons, RT-qPCR; format: cell-based, Mus; conditions: inhibitor 1 h before LPS 100 ng/ml
# T lymphocytes = assay: Activation of T lymphocytes by CD3/CD28 beads (CD69), flow cytometry; format: cell-based, human; conditions: inhibitor 1 h at 1 and 5 μM, then CD3/CD28 beads 3 days
# [13] = test system: 1C11 neuroectodermal stem cells; assay: mRNA encoding TNFα, IL6 and MCP1 in LPS-activated 1C11 stem cells, RT-qPCR; format: cell-based, Mus; conditions: inhibitor 1 h before LPS 100 ng/ml
# [14] = test system: peripheral blood mononuclear cells (PBMCs) of healthy donors; assay: Test for toxicity of the compounds on PBMCs (CellTiter-Glo, ATP); format: cell-based, human; conditions: 24 h of cell culture
# Description: Test for toxicity of the compounds on the peripheral blood mononuclear cells (PBMCs).
# After 24 h of cell culture, the cell viability was determined using the CellTiter-Glo reagent (Promega), which evaluates the amount of ATP by luminescence using the EnSpire.
# THP1-Dual [15] = assay: Interferon response of cGAMP-stimulated THP1-Dual cells, luciferase
# B lymphocytes = assay: Activation of B lymphocytes by CpG-A (CD69), flow cytometry; format: cell-based, human; conditions: inhibitor 1 h at 1 μM, then CpG-A 1 μg/ml (TLR9) 24 h
# [16] = test system: monocytes of patients suffering from juvenile idiopathic arthritis; assay: Spontaneous TNFα production by monocytes of juvenile idiopathic arthritis patients, SIMOA; format: cell-based, human; conditions: monocytes incubated with inhibitor for 24 h, no stimulation
# [17] = test system: plasmacytoid dendritic cells (pDC) of healthy donors; assay: Intracellular IFNα and TNFα in plasmacytoid dendritic cells in response to HIV, flow cytometry; format: cell-based, human; conditions: inhibitor 1 h before AT-2-inactivated HIV-1MN, 16 h
# [18] = cGAMP stimulation, CellTiter Glo
# [19] = 10 mg/kg daily oral, terminal plasma, ELISA
# [20] = monocytes, inhibitor 1 h before MSU 50 μg/ml, 16 h
compound,measurement,setting,value
C[C@@H](N)[C@H]1CC[C@H](C(=O)Nc2ccncc2)CC1 [Y27632],production of inflammatory cytokines,[1],capable of inhibiting
same,level of TNFα in the culture medium,[2],re-establishes
same,production of inflammatory cytokines,[3],capable of inhibiting
same,intracellular production of inflammatory cytokines (TNFα),[3],"inhibits, according to a dosage effect"
same,production of inflammatory cytokines,[4],capable of inhibiting
same,"production and secretion of pro-inflammatory cytokines, such as IL-6, IL-1p and the interferons induced by the TLR7/8 stimulation",[5],inhibits
same,production of TNFα induced by the TLR7/8 stimulation,[5],inhibits
"Cc1cncc2cccc(S(=O)(=O)N3CCCNCC3C)c12 (centres unmarked) [formula (VIII), dimethylfasudil]",level of TNFα in the culture medium,[2],re-establishes
same,"production and secretion of pro-inflammatory cytokines, such as IL-6, IL-1p and the interferons induced by the TLR7/8 stimulation",[5],inhibits
same,production of TNFα induced by the TLR7/8 stimulation,[5],inhibits
O=C(Nc1cccc(Nc2ncc(Br)c(NCCc3c[nH]cn3)n2)c1)N1CCCC1 [BX912],"secretion of the inflammatory cytokines (IL-6, IL-1β, TNFα, P10) and the interferons (IFNα2, IFNβ, IFN11)",[6],inhibits
same,production of interferon induced by the STING ligand,HEK293,does not block
same,production of inflammatory cytokines,[1],capable of inhibiting
same,production of inflammatory cytokines (TNFα),"[1]; monocytes, inhibitor 1 h before LPS 100 ng/ml (TLR4), 16 h","inhibits, according to a dosage effect"
same,"concentration from which the transcription of the gene encoding TNFα, IL6 and MCP1 induced by LPS is reduced, according to a dosage effect",THP1-Dual [7],≥ 0.5 µM
same,production of inflammatory cytokines (TNFα),[8],"inhibits, according to a dosage effect"
same,production of inflammatory cytokines,[3],capable of inhibiting
same,intracellular production of inflammatory cytokines (TNFα),[3],"inhibits, according to a dosage effect"
same,"concentration from which the production of interferons (IFN) induced by cGAMP is blocked, according to a dosage effect","[9]; PBMCs, inhibitor 1 h before cGAMP 3 μg/ml, 24 h",≥ 1 µM
same,viability of the PBMCs,[9]; [18],without affecting the viability
same,effect on progression and severity of the disease,DBA/1J mice; 0.5 mg/kg daily oral (group 3),no ameliorative effect
same,total average arthritis scores (histopathology),DBA/1J mice; 0.5 mg/kg daily oral (group 3),slight reductions
same,rate of progression of the disease,DBA/1J mice; 2 mg/kg daily oral (group 4),significant reduction
same,reduction in the (overall) severity of the disease at the end of the study,DBA/1J mice; 2 mg/kg daily oral (group 4),56%
same,reduction in the (overall) severity of the disease at the end of the study,DBA/1J mice; 10 mg/kg daily oral,82%
same,progression of the disease,DBA/1J mice; 10 mg/kg daily oral (group 5),stopped
same,reduction in the terminal plasma levels of IL-1i,"DBA/1J mice; 10 mg/kg daily oral (group 5), ELISA",37%
same,decrease in terminal plasma IL-6,DBA/1J mice; [19],62%
same,rate of progression of the disease and severity of the disease,"DBA/1J mice; daily oral, 0.5, 2 and 10 mg/kg",dose-dependent reduction
same,"secretion of the inflammatory cytokines (IL-6, IL-1β, TNFα, GM-CSF, IL-10) and the interferons (IFNI⅔, IFNβ, IFNg)",[10],inhibits
same,secretion of interferons,"[11]; curative: inhibitor 1 h after R848 (TLR7/8) stimulation, FIG. 15C",blocking
same,secretion of interferons,"[11]; inhibitor during the R848 (TLR7/8) stimulation, FIG. 15B",blocking
same,secretion of interferons,"[11]; preventive: inhibitor 1 h before R848 (TLR7/8) stimulation, FIG. 15A",blocking
same,"transcription of the genes encoding TNFα, IL6 and MCP1 induced by LPS",[12],does not block
same,expression of the CD69 marker at the surface of the T lymphocytes,T lymphocytes,"inhibits, according to a dosage effect"
same,viability of the T lymphocytes,T lymphocytes,without affecting the viability
same,"transcription of the genes encoding TNFα, IL6 and MCP1 induced by LPS",[13],does not block
same,toxicity on the peripheral blood mononuclear cells (PBMCs),[14]; PBMCs infected with HIV,no toxicity
same,toxicity on the peripheral blood mononuclear cells (PBMCs),[14]; stimulation of the TLR4 receptors,no toxicity
same,toxicity on the immune cells (PBMCs),[14]; stimulation of the TLR7/8 receptors,no toxicity
same,"concentration from which the production of interferons (IFN) induced by cGAMP is blocked, according to a dosage effect","THP1-Dual [15]; THP1-Dual, inhibitor 1 h before cGAMP 3 μg/ml, 24 h",≥ 1 µM
same,viability of the THP1-Dual,THP1-Dual [15]; [18],without affecting the viability
same,production of inflammatory cytokines,[4],capable of inhibiting
same,intracellular production of IL-1β,[4]; [20],inhibits
same,production of TNFα,[4]; [20],inhibits
same,expression of the CD69 marker at the surface of the B lymphocytes,B lymphocytes,"inhibits, according to a dosage effect"
same,viability of the B lymphocytes,B lymphocytes,without affecting the viability
same,spontaneous production of TNFα,[16],inhibits
same,"secretion of the inflammatory cytokines (IL-6, IL-1β, TNFα, IP10, GM-CSF, IL-10) and the interferons (IFN11, IFN12/3, IFNβ, IFNg)","[5]; PBMCs, inhibitor 1 h before R848 5 μg/ml (TLR7/8), 24 h",inhibits
same,intracellular production of interferon IFNα,[17],inhibits
same,production of TNFα,[17],inhibits
"C[C@]12C=CC(=O)C=C1CC[C@@H]1[C@@H]2[C@@H](O)C[C@@]2(C)[C@H]1CC[C@]2(O)C(=O)CO [prednisolone, reference compound]",reduction in the (overall) severity of the disease at the end of the study,DBA/1J mice; 10 mg/kg daily oral,95%
same,decrease in plasma IFNγ,DBA/1J mice; [19],49%
same,decrease in plasma TNFα,DBA/1J mice; [19],54%
same,decrease in terminal plasma IL-6,DBA/1J mice; [19],70%
same,total average arthritis scores (histopathology),DBA/1J mice; 10 mg/kg daily oral,lowest
